Data on three compounds can be found in US10087173B2, “Substituted aminothiazoles as inhibitors of cancers, including hepatocellular carcinoma, and as inhibitors of hepatitis virus replication” (BARUCH S. BLUMBERG INSTITUTE, priority 2011, dated 2018).

Type in all cases: cell-based
Series [1] concerns Huh7 cells. As to the kind of experiment: MTT cell viability assay, Huh7 cells, 72 h. The conditions noted are these: read-out: Huh7 CC50. The source says:
(§1) Huh-7 cells and derived from hepatocellular carcinoma cells, and were donated by Dr. Xuanyong Lu, (Drexel University College of Medicine, Doylestown, Pa.). THLE-2 were purchased from American Type Culture Collection (Manassas, Va.). PH5CH were donated by Dr. Masayuki Noguchi (University of Tsukuba, Ibaraki, Japan). THLE-2 and PH5CH have been immortalized through stable transfection of the SV40 large T antigen in normal hepatocytes, and are thus cell lines that are representative of normal hepatocytes rather than HCC cells. THLE2 have been confirmed to not form tumors in athymic mice. All cell lines were cultured and maintained in 5% CO2 at 37° C. Huh-7 were maintained in the culture media DMEM/F12 (Dulbecco's Modified Eagle Medium) with 10% Fetal bovine serum (FBS), 100 μg/mL penicillin, 100 units/mL streptomycin, and 50 μg/mL normocin. THLE-2 and PH5CH were maintained in the culture media Brochial Epithelial Growth Media (BEGM) with 10% FBS, 100 μg/mL penicillin, 100 units/mL streptomycin, with the following additives form the prepackaged kit: Bovine pituitary extract (BPE), insulin, hydrocortisone, retinoic acid, transferrin, triiodothyronine, supplemented with 5 ng/ml human epidermal growth factor and 70 ng/ml phosphoethanolamine (Lonza Walkersville Inc., Walkersville, Md.).
(§2) Huh7 cells were plated on 96-well plates at 2.0×10^4 cells per well to permit grow in the presence of compounds of the disclosure. Compounds of the disclosure were prediluted and transferred to cell plates by automated liquid handling. Cells were incubated with compounds of the disclosure for 72 hours, after which culture growth and viability were assessed by addition of 50 μg/mL 3-(4,5-Dimethyl-2-thiazolyl)-2,5-diphenyl-2H-tetrazolium bromide (MTT) incubation for 4 hours at 37° C. Solubilization buffer (0.01M HCl, 10% SDS) was added followed by incubation at 37° C. overnight. Absorbance was measured at 570 nm (reference 630 nm). Compound of the disclosure were tested in Huh7, THLE-2 and PH5CH, over eight-point dilutions in half-log steps, testing 50.0, 16.6, 5.0, 1.66, 0.5, 0.166, 0.05, and 0.016 μM in 0.5% DMSO, with each concentration in duplicate wells. […] Each compound was tested from 2 to 7 times in separate assay trials.
(Tetrazolium dyes change colour on reduction, which living cells bring about.)

For series [2], the system named is THLE2 cells. As to the kind of experiment: MTT cell viability assay, THLE2 cells, 72 h. The conditions noted are these: immortalized normal hepatocytes THLE2, 72 hours, 0.016-50.0 μM tested.
From the text: as §1, with “THLE2 have been confirmed to not form tumors in athymic mice.” left out
as §2
(§3) Selectivity of toxicity in HCC-derived cells over normal liver-derived cells is important for the purposes of developing a therapy that specifically targets the cancer with low toxicity for […]. The Selective Index (SI) is the ratio of CC50 in normal cells (THLE2 or PH5CH) over the CC50 in the liver cancer derived cells; thus, the higher the number, the lower the potential toxicity at an efficacious dose.

For series [3], the system named is PH5CH cells. As to the kind of experiment: MTT cell viability assay, PH5CH cells, 72 h. The conditions noted are these: immortalized normal hepatocytes PH5CH, 0.016-50.0 μM tested.
From the text: as §1, §2, §3

Series [4] is described as follows: MTT cell viability assay, THLE2 cells, 72 h. The settings on record: human, immortalized normal hepatocytes THLE2, 72 hours, 0.016-50.0 μM tested.
From the text: as §1, with “THLE2 have been confirmed to not form tumors in athymic mice.” left out
as §2, §3

A short description of series [5]: MTT cell viability assay, PH5CH cells, 72 h. The conditions noted are these: human, immortalized normal hepatocytes PH5CH, 0.016-50.0 μM tested.
From the text: as §1, §2, §3

Usually CC50 stands for the concentration giving 50% cytotoxicity.

Where two headings read alike, the source gives them in different places. Bounds are passed on as bounds.

`N#Cc1sc(Nc2ncccn2)nc1-c1ccccn1` [Entry 29]: the CC50 in series [1] (hepatocellular carcinoma derived Huh7 cells, 72 hours, MTT, 0.016-50.0 μM tested) is not above 0.016 µM; in series [2], not below 50 µM; in series [3], not below 50 µM.
`CC(C)(C)OC(=O)c1sc(N(c2ncccn2)C(C)(C)C)nc1-c1ccccn1` [Entry 44]: the CC50 in series [1] (Homo sapiens, Huh-7, 72 h) is 20.5 µM. Moreover, the half-maximal cytotoxic concentration (CC50) at 72 h in series [4] and in series [5] was not below 50 µM in each case.
For `N#Cc1sc(Nc2ncccn2)nc1-c1ccccn1` [Entry 47], in series [1] (Homo sapiens, Huh-7, hepatocellular carcinoma derived Huh7 cells, 72 hours, MTT, 0.016-50.0 μM tested), the CC50 is not above 0.016 µM. Besides, the 50% cytotoxic concentration (CC50) at 72 h in series [4] and in series [5] was not below 50 µM each time.
